Results from patent publication US10463639B2, “Compounds as modulators of a mutant CFTR protein and their use for treating diseases associated with CFTR protein malfunction” (INSTYTUT BIOCHEMII I BIOFIZYKI PAN, priority 2010, dated 2019).

Target: T1, ΔF508-CFTR (Homo sapiens, UniProt P13569, DEL508-508)
T1 construct: expressed in transfected cells; host or cells: HeLa cells, stably transfected (pTracer-based plasmid pTCF-F508del), provided by Pascale Fanen (Inserm U.468)
Test: CFTR immunolocalization by confocal immunofluorescence in HeLa cells
Format: cell-based
Conditions: 1 μM, 24 hours
Experimental: (c) Effects of the different compounds used at 1 μM on CFTR localization. Confocal imaging showing the plasma membrane localisation of WT-CFTR and intracellular localisation of ΔF508-CFTR. The effect of drugs is illustrated in panels c to f. Bars: […]. Arrows indicate staining of CFTR at the plasma membrane.
HeLa cells grown on glass coverslips were treated as above and as described in Lipecka, J. et al., Distribution of ClC-2 chloride channel in rat and human epithelial tissues. American journal of physiology. Cell physiology 282, C805-16(2002). Cells were fixed with 4% formaldehyde and permeabilized with 0.1% Triton in PBS. Cells were blocked with 1% bovine serum albumine in PBS/Triton and incubated at 4° C. overnight with the primary antibodies, 24-1 (1:300). After washing and blocking with 5% normal goat serum, cells were incubated with the secondary antibodies. Glass coverslips were mounted using the Vectashield mounting medium (Vector laboratories) and examined by confocal laser microscopy (Zeiss, LSM 510).

T1 sequence (P13569 with tags, fused parts or gaps DEL508-508): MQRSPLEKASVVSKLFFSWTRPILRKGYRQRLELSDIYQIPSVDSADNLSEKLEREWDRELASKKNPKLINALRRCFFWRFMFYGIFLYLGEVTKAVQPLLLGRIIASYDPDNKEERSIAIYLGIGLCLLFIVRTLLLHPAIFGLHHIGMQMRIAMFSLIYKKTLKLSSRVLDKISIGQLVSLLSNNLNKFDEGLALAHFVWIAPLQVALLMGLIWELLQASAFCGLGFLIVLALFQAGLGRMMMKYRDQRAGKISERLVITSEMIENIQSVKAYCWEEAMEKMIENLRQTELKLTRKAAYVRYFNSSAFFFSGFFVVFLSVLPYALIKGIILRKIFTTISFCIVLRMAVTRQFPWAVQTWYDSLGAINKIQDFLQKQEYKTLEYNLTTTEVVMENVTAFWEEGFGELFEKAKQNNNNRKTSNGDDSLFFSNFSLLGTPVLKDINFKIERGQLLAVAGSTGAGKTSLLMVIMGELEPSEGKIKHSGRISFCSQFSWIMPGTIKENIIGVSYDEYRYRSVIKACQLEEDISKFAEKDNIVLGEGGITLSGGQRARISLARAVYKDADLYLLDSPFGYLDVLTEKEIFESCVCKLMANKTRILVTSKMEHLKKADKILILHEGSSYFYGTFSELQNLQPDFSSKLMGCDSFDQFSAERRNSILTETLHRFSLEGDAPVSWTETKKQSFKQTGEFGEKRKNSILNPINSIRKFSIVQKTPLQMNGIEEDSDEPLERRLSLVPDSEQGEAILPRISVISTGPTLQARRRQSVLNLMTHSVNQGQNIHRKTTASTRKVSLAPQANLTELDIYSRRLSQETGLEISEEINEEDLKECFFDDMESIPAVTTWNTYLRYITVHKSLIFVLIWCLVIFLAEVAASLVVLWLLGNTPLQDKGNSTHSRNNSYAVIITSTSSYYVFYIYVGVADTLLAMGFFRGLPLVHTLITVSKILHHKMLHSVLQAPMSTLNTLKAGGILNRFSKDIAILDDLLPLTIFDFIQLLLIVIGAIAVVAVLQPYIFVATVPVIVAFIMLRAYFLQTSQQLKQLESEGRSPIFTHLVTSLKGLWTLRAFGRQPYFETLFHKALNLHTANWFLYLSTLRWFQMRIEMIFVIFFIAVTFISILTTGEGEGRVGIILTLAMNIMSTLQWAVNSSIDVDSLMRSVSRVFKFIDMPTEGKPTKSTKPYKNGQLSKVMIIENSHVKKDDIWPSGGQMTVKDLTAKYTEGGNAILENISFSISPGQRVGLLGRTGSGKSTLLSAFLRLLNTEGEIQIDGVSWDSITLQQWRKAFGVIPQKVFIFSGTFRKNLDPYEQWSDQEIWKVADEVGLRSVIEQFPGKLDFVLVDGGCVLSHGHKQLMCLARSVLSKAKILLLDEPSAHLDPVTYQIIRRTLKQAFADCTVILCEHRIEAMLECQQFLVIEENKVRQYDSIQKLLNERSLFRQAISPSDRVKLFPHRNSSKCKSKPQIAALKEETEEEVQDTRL

| SMILES | CFTR staining / plasma membrane localisation |
| --- | --- |
| O=c1nc(SCc2cccc([N+](=O)[O-])c2)[nH]c2nc[nH]c12 [compound 118208, 2-[(3-nitrophenyl)methylsulfanyl]-3,7-dihydropurin-6-one] | discrete punctuate staining at the plasma membrane was observed in a small fraction of cells |
| O=P(O)(CCP(=O)(O)c1ccccc1)c1ccccc1 [compound 407882, 2-[hydroxy(phenyl)phosphoryl]ethyl-phenylphosphinic acid] | clear CFTR staining at or near the plasma membrane |
| O=C(O)c1ccc(C(=O)O)c(C(=O)Nc2ccc3c(c2)Cc2ccccc2-3)c1 [compound 73100, 2-(9H-fluoren-2-ylcarbamoyl)terephthalic acid] | discrete punctuate staining at the plasma membrane was observed in a small fraction of cells |
